From patent publication US20230035491A1, “METHODS, KITS AND COMPOSITIONS FOR REDUCING CARDIOTOXICITY ASSOCIATED WITH CANCER THERAPIES” (Baruch S. Blumberg Institute, priority 2019, published 2023)
Counter-ions that a name gives are not always drawn.

Key:
[1] = tested on: Isolated canine cardiac myocytes; assay: DOX-induced apoptosis of isolated canine cardiac myocytes; type: cell-based; conditions: 24 hours
iPSC-CM = assay: CellTiter-Glo luminescent cell viability assay, iPSC-derived cardiomyocytes; type: cell-based; conditions: 5 μM Dox plus 50 μM compound vs Dox alone
[2] = tested on: breast cancer cell lines (BCa); assay: CellTiter-Glo luminescent cell viability assay, breast cancer cell lines; type: cell-based; conditions: 5 μM Dox plus 50 μM compound vs Dox alone
[3] = tested on: breast cancer cell line Py8119; assay: Py8119 cell proliferation by cell number using methylene blue; type: cell-based; conditions: Ranolazine 0.156 um to 20 um, alone or with 5 uM Dox
Method: The breast cancer cell line Py8119 was treated with either increasing doses of Ranolazine (0.156 um to 20 um) or with the addition of doxorubicin. (5 uM Dox). Cell proliferation was established by cell number using methylene blue.

miRNAs targeting CCR5 = assay: miRNA expression profiles of hearts after acute doxorubicin regimen (Illumina miRNA arrays); type: in vivo, rats; conditions: acute doxorubicin 1x 20 mg/kg IP, n=6, vs saline
Excerpt: In silico analysis using the miRdb database (www.mirdb.org) identified a number of miRNAs that could potentially regulate translation of CCR5 in rats (see X-axis for identification of individual miRNAs). […] Data rare represented as fold change to saline treated rats and shown as mean+/−SEM, * p<0.01.

CCR5, CCL3, CCL5 = tested on: CCR5, CCL3, CCL5; design: species or system human
Method: FIGS. 4a through 4f show myocardial biopsies from patients with either doxorubicin-induced cardiomyopathy or donor control heart. […] Samples were obtained from the Sydney heart bank. Biopsies were obtained at the time of transplant for the doxorubicin affected hearts. […] Heart biopsies were fixed in paraformaldehyde overnight prior to being embedded in paraffin blocks. Blocks were sectioned at […]. After deparaffinization and rehydration, antigen retrieval was performed in Tris buffer (pH 9) on the resulting sections. After blocking, sections were incubated with an antibody against CCR5, CCL3, or CCL5. Anti-CCR5 antibody binding was visualized using an HRP-conjugated second antibody and NOVA red substrate. Haematoxylin was used for nuclear visualization.

CCR5 = CCR5 immunostaining of myocardium after chronic regimen of DOX; type: in vivo, mice; conditions: DOX 8×3 mg/kg IP, excised after 8 weeks; vs saline
Method: Mice were treated with a chronic regimen of DOX (8×3 mg/kg, IP, n=12) or saline (n=10), excised after 8 weeks and fixed in paraformaldehyde overnight before being embedded in paraffin blocks. Blocks were sectioned (5 μm) and, after deparaffinization and rehydration, antigen retrieval was performed in Tris buffer (pH 9). After blocking, sections were incubated with an antibody against CCR5. Anti-CCR5 antibody binding was visualized using an HRP-conjugated second antibody and Nova red substitute. Haematoxylin was used for nuclear visualization.

cardiac progenitor iPSCs [4] = assay: DOX killing and CCR5 expression in cardiac progenitor iPSCs, propidium iodide / flow cytometry; type: cell-based
Method: Some cells were suspended in PBS containing normal mouse IgG and rat anti-mouse Fcg III/II receptor antibody. Cells were exposed allophycocyanin (APC)-labeled CCR5 antibody for 1 hour at 4° C. After washing, analysis of CCR5 expression on cell was conducted on FACSCalibur flow cytometer (BD Biosciences). The data was analyzed with FlowJo software (Tree Star, Inc.). […] As such, CCR5+ cardiac progenitor cells are more prone to DOX induced cell death from than their CCR5− counterparts.

[5] = tested on: BCa cells (SUM-159, FC-IBC-02, MDA-MB-231); assay: CCR5 expression in BCa cells grown in doxorubicin, flow cytometry; type: cell-based; conditions: 10-40 nmol/L doxorubicin for up to 80 days vs untreated
Method: BCa cells were grown in vitro under standard conditions for control (“solid bar”) or DOX treatment (“non-solid bar”) for up to 80 days. SUM-159 cells were grown in 10 nmol/L doxorubicin for 1 month, then 20 nmol/L doxorubicin for 1 month, and then 40 nmol/L doxorubicin for 3 weeks, prior to analysis. FC-IBC-02 cells were grown in 40 nmol/L doxorubicin for 1 month prior to analysis. MDA-MB-231 cells were grown in 20 nmol/L doxorubicin for 1 month then 40 nmol/L doxorubicin for 3 weeks prior to analysis. At the conclusion of the 80 days, surviving cells were harvested and pelleted by centrifugation. Cells were suspended in PBS containing normal mouse IgG and rat anti-mouse Fcg III/II receptor antibody to block nonspecific binding. Cells were exposed allophycocyanin (APC)-labeled CCR5 antibody for 1 hour at 4° C. After washing, analysis of CCR5 expression on cell was conducted on FACSCalibur flow cytometer (BD Biosciences). The data was analyzed with FlowJo software (Tree Star, Inc.). […] Data are % cells expressing CCR5 (mean of n=3 determinations).

[6] = tested on: CCR5, CCL3/MIP-la, CCL5/RANTES; conditions: chronic or acute DOX regimen vs saline; cited from earlier work
[7] = Survival of doxorubicin treated mice over 90 days; type: in vivo
Excerpt: Survival was documented over the first 90 days after the beginning of treatment.

[8] = Chronic DOX model, cardiac function by echocardiography; type: in vivo; conditions: female mice, DOX 8×3 mg/kg over 2 weeks; 6 and 8 weeks after first injections; vs saline
Method: Female mice (n=10) were treated with a chronic regimen of DOX (8×3 mg/kg over 2 weeks) and cardiac function assessed by echocardiography at 6 and 8 weeks after the first injections. Echocardiographic imaging was employed using the Vevo 2100 preclinical high-frequency ultrasound system (Visualsonics, Toronto, Canada). M-mode analysis of the resulting images provided indices of cardiac systolic and diastolic function. For FIG. 5a, the ejection fraction is the percentage of the left ventricular volume expelled with each cardiac contraction. For FIG. 5b, the ESD is the […]. For FIG. 5c, the ESV is the end systolic volume or the volume of the heart at the end of contraction (systole). For FIG. 5d, the PWs is the posterior wall thickness at end of systole or the thickness of the myocardium at maximal ventricular contraction. All data are compared to the saline treated group and represent mean+/−SEM, p<0.01.

[9] = tested on: CCR5 ligands CCL3, CCL5, CCL4; conditions: doxorubicin treated patients (n=7) vs donor controls (n=9); cited from earlier work
[10] = Doxorubicin induced cardiac dysfunction, echocardiography 8 weeks after final dose; type: in vivo, mice; conditions: doxorubicin 8×3 mg/kg over 2 weeks with maraviroc 16 mg/kg twice daily gavage vs vehicle; n=15 per group
Excerpt: A representative example of the echocardiogram is shown. […] Indices include Left Ventricular End Systolic Dimension (LVESD) and Volume (LVESV), which are the diameter and volume of the left ventricle at the end of systole respectively, ejection fraction (EF) which is the percentage of the left ventricular volume expelled with each cardiac contraction (%), and fractional shortening (FS) which is the proportion of diastolic dimension lost in systole (%).

MDA-MB-231 BCa cells = conditions: Veliparib plus maraviroc vs vehicle, 72 hours, n=3
Method: After 24 hours, cells were harvested and pelleted by centrifugation. For cell death, cells were incubated with RNase A and propidium iodide to highlight DNA content and nuclear morphology. Cell death was identified by counting cells with nuclei that were smaller and with less DNA content compared to normal diploid cells. […] (mean+/−SD, n=3). […] MDA-MB-231 BCa cells were plated onto 96-well plates, allowed to adhere overnight, then treated with drug for 72 hours. Cells were incubated with DNA damaging agent (Veliparib) and either vehicle or maraviroc. A measurement of cell number was made at both the time of treatment (time 0) and after drug treatment (time 72) using CTG reagent (Promega, Madison, Wis.) to allow for calculation of percent growth inhibition and the dose required to inhibit growth rate by 50% (GR50). […] Data represents mean+/−SD (n=3).

cardiac progenitor iPSCs [11] = assay: Cell death of cardiac precursor iPSCs with saline or DOX and maraviroc, propidium iodide; type: cell-based; conditions: 1 μM DOX plus maraviroc (0-100 m), 24 hours, n=3
Excerpt: (mean+/−SD, n=3). […] Data represents mean+/−SD (n=3).

SUM-159 cells = assay: BCa lung metastasis after intracardiac injection of SUM-159 Luc2-eGFP cells, bioluminescence imaging; type: in vivo, NOD/SCID mice; conditions: Maraviroc 8 mg/kg every 12 hr oral gavage vs vehicle; n=6
Method: SUM-159 cells expressing Luc2-eGFP were introduced by intracardiac injection into 8-week old female NOD/SCID mice at 2×10^5 cells/mouse). […] Bioluminescence imaging was performed after intraperitoneal (i.p.) injection with 200 μL of D-luciferin at 30 mg/ml.

[12] = anthracycline cardiotoxicity myocardium (n=2) vs normal donor heart (n=2)

In the case of `COc1ccccc1OCC(O)CN1CCN(CC(=O)Nc2c(C)cccc2C)CC1` (centres unmarked) [Ranolazine dihydrochloride], the “DOX-induced cardiac toxicity (levels of apoptosis)” value ([1]; pretreated with ranolazine dihydrochloride 50 μM, then DOX 2 μM, n=3) was “reduces DOX-induced cardiac toxicity”, the “survival of iPSC-CM” value (iPSC-CM) was “improved survival” and the “survival of BCa cells” value [2] was “reduced survival”.

For `COc1ccccc1OCC(O)CN1CCN(CC(=O)Nc2c(C)cccc2C)CC1` (centres unmarked) [Ranolazine], the “breast cancer cell killing (cell proliferation)” value [3] was “enhance breast cancer cell killing in a dose dependent manner”.

In the case of `COc1cccc2c1C(=O)c1c(O)c3c(c(O)c1C2=O)C[C@@](O)(C(=O)CO)C[C@@H]3O[C@H]1C[C@H](N)[C@H](O)[C@H](C)O1` [doxorubicin], the “proportion of DOX-induced apoptotic cell death” value ([1]; DOX 10 μM, no pretreatment) was 17%, the “miRNAs targeting CCR5 with decreased expression in the myocardium” value (miRNAs targeting CCR5) was 8/11 and the “Average ejection fraction (EF)” value (CCR5, CCL3, CCL5) was 25-35%. The “CCL3 expression in myocardium” value (CCR5, CCL3, CCL5; [12]) was “increased”, the “CCL5 expression in myocardium” value (CCR5, CCL3, CCL5; [12]) was “increased” and the “CCR5 expression in myocardium” value (CCR5, CCL3, CCL5; [12]) was “increased”. For the same compound, the “CCR5 expression in the myocardium” value (CCR5) was “increased”, the cell death (cardiac progenitor iPSCs [4]; DOX 0-10 m, 24 hours, n=5) was “promotes cell death in a dose dependent manner” and the CCR5 expression (cardiac progenitor iPSCs [4]; DOX 24 hours, n=3) was “increases CCR5 expression”. The “CCR5 expression (% cells expressing CCR5)” value [5] was “significantly increased”, the “CCL3 mRNA expression in the heart” value [6] was “increased mRNA expression” and the “CCL5 mRNA expression in the heart” value [6] was “increased mRNA expression”. For the same compound, the “survival over first 90 days” value ([7]; doxorubicin 8x 3 mg/kg over 2 weeks with vehicle control) was 7/15, the “cardiac function (ejection fraction, ESD, ESV, PWs)” value [8] was “induction of stable mild heart failure” and the “CCL3 mRNA expression in the heart” value [9] was “increased mRNA expression”. For the same compound, the “CCL5 mRNA expression in the heart” value [9] was “increased mRNA expression”.

In the case of maraviroc, the “proportion of DOX-induced apoptotic cell death” value ([1]; pretreated with maraviroc 100 μM, then DOX 10 μM) was 3%, the “survival of iPSC-CM” value (iPSC-CM) was “improved survival” and the “doxorubicin induced cardiac dysfunction (LVESD, LVESV, EF, FS)” value [10] was “prevents doxorubicin induced cardiac dysfunction”. For the same compound, the “survival over first 90 days” value ([7]; doxorubicin 8x 3 mg/kg over 2 weeks with maraviroc 16 mg/kg twice daily gavage) was 10/15, the “enhanced survival over the vehicle in DOX treated mice” value ([7]; doxorubicin with maraviroc vs doxorubicin with vehicle) was 2.77 fold and the “BCa cell killing in combination with veliparib” value (MDA-MB-231 BCa cells) was “synergistically promotes BCa cell killing”. The “DOX induced cell death” value (cardiac progenitor iPSCs [11]) was “significantly, and dose dependently, rescues DOX induced cell death”, the “survival of BCa cells” value [2] was “reduced survival” and the BCa lung metastasis (SUM-159 cells) was “reduced”.
